Test [1] deals with human JAK1 (a.a. 837-1142) (Homo sapiens, UniProt P23458). The test is described as follows: In vitro JAK kinase assay (HTRF, phosphorylation of biotinylated peptide), JAK1. The format is biochemical. The note with it: Table F; 1 mM ATP. Summed up: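 His-tagged human JAK1 catalytic domain (a.a. 837-1142), baculovirus/insect-cell expressed, phosphorylates a biotinylated peptide for 1 h at room temperature. Reaction stopped with EDTA; product detected by HTRF (SA-APC, Eu-Py20, 40 min binding). IC50 reported as ranges.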
(Time-resolved FRET reads energy transfer from a long-lived donor to a nearby acceptor.)

Test [2] concerns the target T1, JAK2 (a.a. 828-1132) (Homo sapiens, UniProt O60674).
T1 construct: JAK2 (a.a. 828-1132); His tag (N)
The test is described as follows: In vitro JAK kinase assay (HTRF, phosphorylation of biotinylated peptide), JAK2. The format is biochemical. As to conditions: Table F; 1 mM ATP. The essentials:
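His-tagged catalytic domains of human JAK1 (a.a. 837-1142) and JAK2 (a.a. 828-1132), baculovirus-expressed, phosphorylate a biotinylated peptide for 1 hour at room temperature. Stopped with EDTA; detected by HTRF using SA-APC and Eu-Py20 antibody after 40 min binding; values binned as ranges.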

Chain of human JAK1 (a.a. 837-1142) (P23458 849-1154): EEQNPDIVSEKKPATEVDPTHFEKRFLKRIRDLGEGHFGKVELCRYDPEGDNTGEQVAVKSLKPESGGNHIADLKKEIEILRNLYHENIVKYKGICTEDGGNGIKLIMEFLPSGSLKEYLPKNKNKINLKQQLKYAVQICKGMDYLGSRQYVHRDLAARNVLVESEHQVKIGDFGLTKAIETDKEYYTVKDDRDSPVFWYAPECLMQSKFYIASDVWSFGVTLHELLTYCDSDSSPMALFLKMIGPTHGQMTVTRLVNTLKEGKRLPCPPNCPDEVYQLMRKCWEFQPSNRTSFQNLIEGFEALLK
T1 sequence (O60674 828-1132): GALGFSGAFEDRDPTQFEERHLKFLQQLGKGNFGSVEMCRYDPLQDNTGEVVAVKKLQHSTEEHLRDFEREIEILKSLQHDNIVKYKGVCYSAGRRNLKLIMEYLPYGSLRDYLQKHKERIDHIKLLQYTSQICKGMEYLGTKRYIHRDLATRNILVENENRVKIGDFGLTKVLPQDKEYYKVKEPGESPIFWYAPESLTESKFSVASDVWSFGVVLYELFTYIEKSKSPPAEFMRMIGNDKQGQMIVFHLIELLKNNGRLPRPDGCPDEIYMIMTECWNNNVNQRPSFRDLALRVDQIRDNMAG

A word on the IC50: it is the concentration needed to halve the response being measured. For the compound `N#CC[C@]1(n2cc(-c3ncnc4[nH]ccc34)cn2)C[C@H](N2CCN(C(=O)c3cc(CO)nc(C(F)(F)F)n3)CC2)C1` [Example 51, {trans-3-(4-{[6-(hydroxymethyl)-2-(trifluoromethyl)pyrimidin-4-yl]carbonyl}piperazin-1-yl)-1-[4-(7H-pyrrolo[2,3-d]pyrimidin-4-yl)-1H-pyrazol-1-yl]cyclobutyl}acetonitrile], the IC50 was below 10 nM in test [1] and 25 to 100 nM in test [2].
As to `CN(C)Cc1cc(C(=O)N2CCN([C@H]3C[C@](CC#N)(n4cc(-c5ncnc6[nH]ccc56)cn4)C3)CC2)nc(C(F)(F)F)n1` [Example 52, {trans-3-(4-{[6-[(dimethylamino)methyl]-2-(trifluoromethyl)pyrimidin-4-yl]carbonyl}piperazin-1-yl)-1-[4-(7H-pyrrolo[2,3-d]pyrimidin-4-yl)-1H-pyrazol-1-yl]cyclobutyl}acetonitrile], the IC50 in test [1] is below 10 nM; in test [2], 25 to 100 nM.
`N#CC[C@]1(n2cc(-c3ncnc4[nH]ccc34)cn2)C[C@H](N2CCN(C(=O)c3cc(CN4CCCC4)nc(C(F)(F)F)n3)CC2)C1` [Example 53, {trans-3-(4-{[6-(pyrrolidin-1-ylmethyl)-2-(trifluoromethyl)pyrimidin-4-yl]carbonyl}piperazin-1-yl)-1-[4-(7H-pyrrolo[2,3-d]pyrimidin-4-yl)-1H-pyrazol-1-yl]cyclobutyl}acetonitrile]: the results for the IC50 in test [1] and in test [2] were below 10 nM and 25 to 100 nM, respectively.
`N#CC[C@]1(n2cc(-c3ncnc4[nH]ccc34)cn2)C[C@H](N2CCN(C(=O)c3cc(CN)nc(C(F)(F)F)n3)CC2)C1` [Example 54, {trans-3-(4-{[6-(aminomethyl)-2-(trifluoromethyl)pyrimidin-4-yl]carbonyl}piperazin-1-yl)-1-[4-(7H-pyrrolo[2,3-d]pyrimidin-4-yl)-1H-pyrazol-1-yl]cyclobutyl}acetonitrile]: the IC50 in test [1] is below 10 nM; in test [2], 25 to 100 nM.
Consider `CC(C)NCc1cc(C(=O)N2CCN([C@H]3C[C@](CC#N)(n4cc(-c5ncnc6[nH]ccc56)cn4)C3)CC2)nc(C(F)(F)F)n1` [Example 55, {trans-3-(4-{[6-[(isopropylamino)methyl]-2-(trifluoromethyl)pyrimidin-4-yl]carbonyl}piperazin-1-yl)-1-[4-(7H-pyrrolo[2,3-d]pyrimidin-4-yl)-1H-pyrazol-1-yl]cyclobutyl}acetonitrile], for which the values for the IC50 in test [1] and in test [2] were below 10 nM and 25 to 100 nM, respectively.
Turning to `N#CC[C@]1(n2cc(-c3ncnc4[nH]ccc34)cn2)C[C@H](N2CCN(C(=O)c3cc(CNC4CCC4)nc(C(F)(F)F)n3)CC2)C1` [Example 56, {trans-3-(4-{[6-[(cyclobutylamino)methyl]-2-(trifluoromethyl)pyrimidin-4-yl]carbonyl}piperazin-1-yl)-1-[4-(7H-pyrrolo[2,3-d]pyrimidin-4-yl)-1H-pyrazol-1-yl]cyclobutyl}acetonitrile], the results for the IC50 in test [1] and in test [2] were below 10 nM and 25 to 100 nM, respectively.
On to `CC(C)(C)NCc1cc(C(=O)N2CCN([C@H]3C[C@](CC#N)(n4cc(-c5ncnc6[nH]ccc56)cn4)C3)CC2)nc(C(F)(F)F)n1` [Example 57, {trans-3-(4-{[6-[(tert-butylamino)methyl]-2-(trifluoromethyl)pyrimidin-4-yl]carbonyl}piperazin-1-yl)-1-[4-(7H-pyrrolo[2,3-d]pyrimidin-4-yl)-1H-pyrazol-1-yl]cyclobutyl}acetonitrile], for which the figures for the IC50 in test [1] and in test [2] were below 10 nM and 10 to 25 nM, respectively.
As to `CC(C)(O)c1cc(C(=O)N2CCN([C@H]3C[C@](CC#N)(n4cc(-c5ncnc6[nH]ccc56)cn4)C3)CC2)nc(C(F)(F)F)n1` [Example 58, {trans-3-(4-{[6-(1-hydroxy-1-methylethyl)-2-(trifluoromethyl)pyrimidin-4-yl]carbonyl}piperazin-1-yl)-1-[4-(7H-pyrrolo[2,3-d]pyrimidin-4-yl)-1H-pyrazol-1-yl]cyclobutyl}acetonitrile], the results for the IC50 in test [1] and in test [2] were below 10 nM and 10 to 25 nM, respectively.
Regarding `CC(C)(O)c1cc(C(=O)N2CCN([C@H]3C[C@@](CC#N)(n4cc(-c5ncnc6[nH]ccc56)cn4)C3)CC2)nc(C(F)(F)F)n1` [Example 59, {cis-3-(4-{[6-(1-hydroxy-1-methylethyl)-2-(trifluoromethyl)pyrimidin-4-yl]carbonyl}piperazin-1-yl)-1-[4-(7H-pyrrolo[2,3-d]pyrimidin-4-yl)-1H-pyrazol-1-yl]cyclobutyl}acetonitrile], the IC50 in test [1] is below 10 nM; in test [2], 25 to 100 nM.
Take `COCc1cc(C(=O)N2CCN([C@H]3C[C@](CC#N)(n4cc(-c5ncnc6[nH]ccc56)cn4)C3)CC2)nc(C(F)(F)F)n1` [Example 60, {trans-3-(4-{[6-(methoxymethyl)-2-(trifluoromethyl)pyrimidin-4-yl]carbonyl}piperazin-1-yl)-1-[4-(7H-pyrrolo[2,3-d]pyrimidin-4-yl)-1H-pyrazol-1-yl]cyclobutyl}acetonitrile]: the IC50 in test [1] was below 10 nM; in test [2], 25 to 100 nM.
Regarding `N#CC[C@]1(n2cc(-c3ncnc4[nH]ccc34)cn2)C[C@H](N2CCN(C(=O)c3cc(C4(N)CCC4)nc(C(F)(F)F)n3)CC2)C1` [Example 61, {trans-3-(4-{[6-(1-aminocyclobutyl)-2-(trifluoromethyl)pyrimidin-4-yl]carbonyl}piperazin-1-yl)-1-[4-(7H-pyrrolo[2,3-d]pyrimidin-4-yl)-1H-pyrazol-1-yl]cyclobutyl}acetonitrile], the IC50 in test [1] and in test [2] was below 10 nM each time.
As to `N#CC[C@]1(n2cc(-c3ncnc4[nH]ccc34)cn2)C[C@@H](N2CCN(C(=O)c3cc(C4(N)CCC4)nc(C(F)(F)F)n3)CC2)C1` [Example 62, {cis-3-(4-{[6-(1-aminocyclobutyl)-2-(trifluoromethyl)pyrimidin-4-yl]carbonyl}piperazin-1-yl)-1-[4-(7H-pyrrolo[2,3-d]pyrimidin-4-yl)-1H-pyrazol-1-yl]cyclobutyl}acetonitrile], the IC50 in test [1] and in test [2] was below 10 nM each time.
For `CN(C)C1(c2cc(C(=O)N3CCN([C@H]4C[C@](CC#N)(n5cc(-c6ncnc7[nH]ccc67)cn5)C4)CC3)nc(C(F)(F)F)n2)CCC1` [Example 63, {trans-3-(4-{[6-[1-(dimethylamino)cyclobutyl]-2-(trifluoromethyl)pyrimidin-4-yl]carbonyl}piperazin-1-yl)-1-[4-(7H-pyrrolo[2,3-d]pyrimidin-4-yl)-1H-pyrazol-1-yl]cyclobutyl}acetonitrile], the IC50 in test [1] is below 10 nM; in test [2], 25 to 100 nM.
For `CN(C)C1(c2cc(C(=O)N3CCN([C@H]4C[C@@](CC#N)(n5cc(-c6ncnc7[nH]ccc67)cn5)C4)CC3)nc(C(F)(F)F)n2)CCC1` [Example 64, {cis-3-(4-{[6-[1-(dimethylamino)cyclobutyl]-2-(trifluoromethyl)pyrimidin-4-yl]carbonyl}piperazin-1-yl)-1-[4-(7H-pyrrolo[2,3-d]pyrimidin-4-yl)-1H-pyrazol-1-yl]cyclobutyl}acetonitrile], the IC50 in test [1] is below 10 nM; in test [2], 25 to 100 nM.
Regarding `CN(C)Cc1cc(C(=O)N2CCN([C@H]3C[C@](CC#N)(n4cc(-c5ncnc6[nH]ccc56)cn4)C3)CC2)nc(C(F)(F)F)c1` [Example 65, {trans-3-(4-{[4-[(dimethylamino)methyl]-6-(trifluoromethyl)pyridin-2-yl]carbonyl}piperazin-1-yl)-1-[4-(7H-pyrrolo[2,3-d]pyrimidin-4-yl)-1H-pyrazol-1-yl]cyclobutyl}acetonitrile], the figures for the IC50 in test [1] and in test [2] were below 10 nM and 25 to 100 nM, respectively.
For `N#CC[C@]1(n2cc(-c3ncnc4[nH]ccc34)cn2)C[C@H](N2CCN(C(=O)c3cc(CO)cc(C(F)(F)F)n3)CC2)C1` [Example 66, {trans-3-(4-{[4-(hydroxymethyl)-6-(trifluoromethyl)pyridin-2-yl]carbonyl}piperazin-1-yl)-1-[4-(7H-pyrrolo[2,3-d]pyrimidin-4-yl)-1H-pyrazol-1-yl]cyclobutyl}acetonitrile], the IC50 in test [1] was below 10 nM; in test [2], 25 to 100 nM.
With `N#CC[C@]1(n2cc(-c3ncnc4[nH]ccc34)cn2)C[C@H](N2CCN(C(=O)c3cc(CN)cc(C(F)(F)F)n3)CC2)C1` [Example 67, {trans-3-(4-{[4-(aminomethyl)-6-(trifluoromethyl)pyridin-2-yl]carbonyl}piperazin-1-yl)-1-[4-(7H-pyrrolo[2,3-d]pyrimidin-4-yl)-1H-pyrazol-1-yl]cyclobutyl}acetonitrile], the values for the IC50 in test [1] and in test [2] were below 10 nM and 25 to 100 nM, respectively.
On to `CNCc1cc(C(=O)N2CCN([C@H]3C[C@](CC#N)(n4cc(-c5ncnc6[nH]ccc56)cn4)C3)CC2)nc(C(F)(F)F)c1` [Example 68, {trans-3-(4-{[4-[(methylamino)methyl]-6-(trifluoromethyl)pyridin-2-yl]carbonyl}piperazin-1-yl)-1-[4-(7H-pyrrolo[2,3-d]pyrimidin-4-yl)-1H-pyrazol-1-yl]cyclobutyl}acetonitrile], for which the results for the IC50 in test [1] and in test [2] were below 10 nM and 10 to 25 nM, respectively.
As to `COC(C)(C)c1cc(C(=O)N2CCN([C@H]3C[C@](CC#N)(n4cc(-c5ncnc6[nH]ccc56)cn4)C3)CC2)nc(C(F)(F)F)n1` [Example 69, {trans-3-(4-{[6-(1-methoxy-1-methylethyl)-2-(trifluoromethyl)pyrimidin-4-yl]carbonyl}piperazin-1-yl)-1-[4-(7H-pyrrolo[2,3-d]pyrimidin-4-yl)-1H-pyrazol-1-yl]cyclobutyl}acetonitrile], the IC50 in test [1] is below 10 nM; in test [2], 25 to 100 nM.
